{"source": "paper PMC4897788", "about": "“Design, biological evaluation and 3D QSAR studies of novel dioxin-containing pyrazoline derivatives with thiourea skeleton as selective HER-2 inhibitors” (Scientific Reports, 2016)", "key": {"[1]": {"test_system": "MDA-MB-453 human breast cancer cell line", "test": "Anti-proliferation assay (MTT), MDA-MB-453", "type": "cell-based", "details": "24 h", "method": "MCF-7 human breast cancer cells was cultured in DMEM/10% fetal bovine serum, in 5% CO2 water saturated atmosphere at 37 °C. MDA-MB-453 human breast cancer cells was cultured in L-15 medium in 100% air at 37 °C. Cell suspensions (10000/mL) were prepared and 100 μL/well dispensed into 96-well plates (Costar) giving 1000 cells/well. The plates were returned to the incubator for 24 h to allow the cells to reattach. These compounds were initially prepared at 20 mM in DMSO. Aliquots (200 μL) were diluted into 20 mL culture medium giving 200 μM, and 10 serial dilutions of 3× prepared. Aliquots (100 μL) of each dilution were added to the wells, giving doses ranging from 100 μM to 0.005 μM. After a further incubated at 37 °C for 24 h in a humidified atmosphere with 5% CO2, the cell viability was assessed by the conventional 3-(4,5-dimethylthiazol-2-yl)-2,5-diphenyltetrazolium bromide (MTT) reduction assay and carried out strictly according to the manufacturer instructions (Sigma). The absorbance at 590 nm was recorded using LX300 Epson Diagnostic micro-plate reader. Then GI50 was calculated using SPSS 13.0 software."}, "MDA-MB-453 cell line": {"test_system": "MDA-MB-453 cell line", "test": "Flow cytometry, Annexin V-FITC/PI apoptosis", "type": "cell-based, human", "details": "0.05, 0.1 and 0.2 μM, 24 h", "method": "MDA-MB-453 cell line was seeded per well in 24-well plates and incubated overnight. Then they were treated with compound C20 at three different concentrations (0.05 μM, 0.1 μM and 0.2 μM, separately). DMSO was chosen as the negative control with a regular dosage of 0.2%. After 24 h, cells were harvested for the apoptosis detection. In brief, collected cells were washed once with PBS and subsequently washed once with binding buffer, and then stained with Annexin V-FITC and propidium iodide (PI) in the binding buffer for 20 min at room temperature in the dark. Apoptotic cells were quantified using a FACScan cytofluorometer (PT. Madagasi Brosa Inc. JI. Batang Hari NO. 73, Propinsi Sumatera Utara, Indonesia) plotting at least 10,000 events per sample. To quantify the data, the frequencies in all quadrants were analyzed using flowjo software. We regarded cells in the lower right quadrant (Annexin V positive/PI negative) as early apoptotic cells, and cells in upper right quadrant (Annexin V positive/PI positive) as late apoptotic cells and necrotic cells."}, "p-HER-2": {"test_system": "p-HER-2", "test": "Western blot p-HER-2 in MDA-MB-453", "type": "cell-based, human", "details": "increasing C20 levels", "method": "(§1) After incubation with compound, cells were harvested and washed with PBS, then lysed in lysis buffer (30 mm Tris, pH 7.5, 150 mm NaCl, 1 mm phenylmethylsulfonyl fluoride, 1 mm Na3VO4, 1% Nonidet P-40, 10% glycerol, and phosphatase and protease inhibitors). After centrifugation at 12,000 g for 5 min, the supernatant was collected as total protein. The concentration of the protein was determined by a BCATM protein assay kit (Pierce, Rockford, IL, USA). The protein samples were separated by 10% SDS–PAGE and subsequently electrotransferred onto a polyvinylidene difluoride membrane (Millipore, Bedford, MA, USA). The membrane was blocked with 5% non-fat milk for 2 h at room temperature. The blocked membrane was probed with the indicated primary antibodies overnight at 4 °C, and then incubated with a horse radish peroxidase (HRP)-coupled secondary antibody."}, "Caspase3": {"test_system": "Caspase3", "test": "Western blot Caspase3 in MDA-MB-453", "type": "cell-based, human", "details": "increasing C20 levels", "method": "as §1"}, "[2]": {"molecular_target": "HER-2 protein (truncated) (Homo sapiens, UniProt P04626)", "sequence (P04626 676-1245)": "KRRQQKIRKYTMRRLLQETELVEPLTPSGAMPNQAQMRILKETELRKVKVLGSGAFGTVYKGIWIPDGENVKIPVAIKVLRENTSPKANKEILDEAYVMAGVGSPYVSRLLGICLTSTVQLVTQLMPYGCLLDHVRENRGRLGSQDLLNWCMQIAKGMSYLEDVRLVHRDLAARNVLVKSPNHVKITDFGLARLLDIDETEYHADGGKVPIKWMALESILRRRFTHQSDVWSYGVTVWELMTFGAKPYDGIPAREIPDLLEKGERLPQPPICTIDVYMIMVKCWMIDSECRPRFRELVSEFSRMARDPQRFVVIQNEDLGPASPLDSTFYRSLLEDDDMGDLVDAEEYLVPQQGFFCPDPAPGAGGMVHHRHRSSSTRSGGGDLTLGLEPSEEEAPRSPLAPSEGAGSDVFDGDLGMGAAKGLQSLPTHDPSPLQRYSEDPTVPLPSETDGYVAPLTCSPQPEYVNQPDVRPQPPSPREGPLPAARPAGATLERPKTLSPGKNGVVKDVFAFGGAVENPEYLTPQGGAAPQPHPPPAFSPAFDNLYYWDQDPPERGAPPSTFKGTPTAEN", "test": "BLI assay (bio-layer interferometry)", "type": "binding", "details": "labeled compound, calculated by the Octet Red96 system", "method": "Bio-layer interferometry (BLI). Binding of compounds (labeled; 0.01, 0.05, 0.1, 0.5 μM) to the HER-2 protein (truncated) was measured and analyzed on an Octet Red96 instrument (ForteBio) at room temperature. The buffer-equilibrated streptavidin biosensors were loaded with 100 μg/mL protein. A duplicate set of sensors was incubated in the buffer without protein for a background binding control. The assay was performed in black 96-well plates (Thermo Fisher Scientific) with the total working volume of 0.21 mL per well. The signal was analyzed using a double reference subtraction protocol to subtract the non-specific binding, background, and signal drift caused by sensor variability. The binding event was quantified by the shift of interference pattern of the light. The result was shown in Fig. 7 and the KD was calculated by the Octet Red96 instrument."}, "FAK": {"molecular_target": "T1, FAK (Homo sapiens, UniProt Q05397)", "T1 construct": "human-recombinant full-length FAK", "T1 sequence (Q05397 whole entry)": "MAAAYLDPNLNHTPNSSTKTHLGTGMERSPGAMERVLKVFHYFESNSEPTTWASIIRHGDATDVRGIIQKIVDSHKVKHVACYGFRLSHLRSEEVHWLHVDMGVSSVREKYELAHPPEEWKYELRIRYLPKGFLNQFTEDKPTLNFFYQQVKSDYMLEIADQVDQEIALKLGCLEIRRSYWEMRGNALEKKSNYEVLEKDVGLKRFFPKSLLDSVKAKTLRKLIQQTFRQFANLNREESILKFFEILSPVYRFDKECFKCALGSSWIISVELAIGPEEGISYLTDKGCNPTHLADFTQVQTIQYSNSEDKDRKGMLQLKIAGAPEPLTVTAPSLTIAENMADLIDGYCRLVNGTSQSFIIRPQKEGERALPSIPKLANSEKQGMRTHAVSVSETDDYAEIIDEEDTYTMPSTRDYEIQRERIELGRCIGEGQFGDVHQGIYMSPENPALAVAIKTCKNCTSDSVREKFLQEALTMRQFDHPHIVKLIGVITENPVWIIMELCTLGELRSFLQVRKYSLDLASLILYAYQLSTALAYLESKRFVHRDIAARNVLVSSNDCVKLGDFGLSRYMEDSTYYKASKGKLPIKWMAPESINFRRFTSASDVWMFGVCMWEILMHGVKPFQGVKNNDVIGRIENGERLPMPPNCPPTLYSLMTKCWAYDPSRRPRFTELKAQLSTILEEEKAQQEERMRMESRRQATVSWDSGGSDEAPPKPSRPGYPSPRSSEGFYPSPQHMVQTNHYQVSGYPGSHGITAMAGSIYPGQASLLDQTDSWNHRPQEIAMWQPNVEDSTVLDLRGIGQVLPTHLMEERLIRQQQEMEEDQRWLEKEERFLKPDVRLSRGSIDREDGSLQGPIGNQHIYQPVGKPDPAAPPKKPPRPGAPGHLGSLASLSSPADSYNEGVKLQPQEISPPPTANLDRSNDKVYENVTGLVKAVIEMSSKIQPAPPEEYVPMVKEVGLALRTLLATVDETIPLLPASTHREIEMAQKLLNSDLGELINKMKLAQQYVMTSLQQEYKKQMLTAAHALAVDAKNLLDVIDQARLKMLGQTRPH", "test": "FAK inhibitory assay (Kinase-Glo)", "type": "biochemical", "method": "Selected compounds were tested against FAK. In a typical study, human-recombinant full-length FAK was incubated in kinase buffer containing ATP and the substrate for 4 h at room temperature with or without the presence of the corresponding coumpounds. The final concentration of drug as 100, 30, 10, 3 μg/mL. The remaining ATP in solution was then quantified utilizing the Kinase-Glo-luminescence kit (Promega)."}, "[3]": {"test": "Cytotoxicity test (MTT), NIH-3T3", "type": "cell-based", "details": "mouse, NIH-3T3 mouse embryonic fibroblast cells, NIH3T3", "method": "The cytotoxic activity in vitro was measured against mouse fibroblast NIH-3T3 cell using the MTT assay. Cells were cultured in a 96-well plate at a density of 5 × 10^5 cells and different concentrations of compounds were respectively added to each well. The incubation was permitted at 37 °C, 5% CO2 atmosphere for 24 h before the cytotoxicity assessments. 20 μL MTT reagent (4 mg/mL) was added per well 4 h before the end of the incubation. Four hours later, the plate was centrifuged at 1200 rcf for 5 min and the supernatants were removed, each well was added with 200 μL DMSO. The absorbance was measured at a wavelength of 490 nm (OD 490 nm) on an ELISA microplate reader. Three replicate wells were used for each concentration and each assay was measured three times, after which the average of IC50 was calculated. The cytotoxicity of each compound was expressed as the concentration of compound that reduced cell viability to 50% (IC50)."}, "human erythrocytes": {"test_system": "human erythrocytes", "test": "Hemolysis test", "type": "cell-based", "details": "lytic concentration 30%", "method": "Hemolytic activity was assayed using fresh capillary human blood. Erythrocytes were collected by centrifuging the blood three times in chilled phosphate buffered saline (PBS at 4 °C) at 1000 × g for 10 min. The final pellet was resuspended in PBS to give a 2% w/v solution. Using a microtitre plate, 100 μL of the erythrocyte solution was added to dextran, PLL, stearyl-PLL or stearyl-PLL+ LDL (1–1000/μg/mL) in a volume of […]. Samples were then incubated for 3 h and the microtitre plate was centrifuged then at 1000 × g for 10 min and the supernatants (100 μL) transferred into a new microtitre plate. Hemoglobin release was determined spectrophotometrically using a microtitre plate reader (absorbance at 550 nm). Results were expressed as the amount of released hemoglobin induced by the compounds as a percentage of the total. Hemolysis test was tested according to the guide of biological evaluation of medical device (SFDA, China)."}}}
{"smiles": "COc1ccc(C2CC(c3ccc4c(c3)OCCO4)=NN2C(N)=S)cc1OC", "note": "(centres unmarked) [Compound C20, 3-(2,3-dihydrobenzo[b][1,4]dioxin-6-yl)-5-(3,4-dimethoxyphenyl)-4,5-dihydro-1H-pyrazole-1-carbothioamide]", "values": [{"measurement": "GI50", "setting": "[1]", "result": "0.15 ± 0.01", "unit": "µM"}, {"measurement": "induction of apoptosis", "setting": "MDA-MB-453 cell line", "result": "induce apoptosis of activated MDA-MB-453 cell line in a dose-dependent manner"}, {"measurement": "p-HER-2 levels", "setting": "p-HER-2", "result": "gradually trend of decrease"}, {"measurement": "Caspase3 levels", "setting": "Caspase3", "result": "corresponding increase"}, {"measurement": "Kd", "setting": "[2]", "result": 0.187, "unit": "µM"}, {"measurement": "IC50", "setting": "FAK", "result": "56.2 ± 5.48", "unit": "µM"}, {"measurement": "GI50 at 24 h", "setting": "[3]", "result": "274 ± 3.61", "unit": "µM"}, {"measurement": "Hemolysis LC30", "setting": "human erythrocytes", "result": ">10000", "unit": "µg/mL"}]}
